From ChEMBL document CHEMBL5465560, “Selectivity Literature for EUbOPEN Chemogenomic Library” (2024)
Values belong to the compound of their own block, whether it stands above or below them.

How the values were obtained:
[1] = target: T1, Ephrin type-A receptor 1 (Homo sapiens) (UniProt P21709); experiment: Selectivity interaction (KinomeScan (DiscoverX)) EUB0001049a EPHA1; conditions: at 1 µM
T1 sequence (whole entry): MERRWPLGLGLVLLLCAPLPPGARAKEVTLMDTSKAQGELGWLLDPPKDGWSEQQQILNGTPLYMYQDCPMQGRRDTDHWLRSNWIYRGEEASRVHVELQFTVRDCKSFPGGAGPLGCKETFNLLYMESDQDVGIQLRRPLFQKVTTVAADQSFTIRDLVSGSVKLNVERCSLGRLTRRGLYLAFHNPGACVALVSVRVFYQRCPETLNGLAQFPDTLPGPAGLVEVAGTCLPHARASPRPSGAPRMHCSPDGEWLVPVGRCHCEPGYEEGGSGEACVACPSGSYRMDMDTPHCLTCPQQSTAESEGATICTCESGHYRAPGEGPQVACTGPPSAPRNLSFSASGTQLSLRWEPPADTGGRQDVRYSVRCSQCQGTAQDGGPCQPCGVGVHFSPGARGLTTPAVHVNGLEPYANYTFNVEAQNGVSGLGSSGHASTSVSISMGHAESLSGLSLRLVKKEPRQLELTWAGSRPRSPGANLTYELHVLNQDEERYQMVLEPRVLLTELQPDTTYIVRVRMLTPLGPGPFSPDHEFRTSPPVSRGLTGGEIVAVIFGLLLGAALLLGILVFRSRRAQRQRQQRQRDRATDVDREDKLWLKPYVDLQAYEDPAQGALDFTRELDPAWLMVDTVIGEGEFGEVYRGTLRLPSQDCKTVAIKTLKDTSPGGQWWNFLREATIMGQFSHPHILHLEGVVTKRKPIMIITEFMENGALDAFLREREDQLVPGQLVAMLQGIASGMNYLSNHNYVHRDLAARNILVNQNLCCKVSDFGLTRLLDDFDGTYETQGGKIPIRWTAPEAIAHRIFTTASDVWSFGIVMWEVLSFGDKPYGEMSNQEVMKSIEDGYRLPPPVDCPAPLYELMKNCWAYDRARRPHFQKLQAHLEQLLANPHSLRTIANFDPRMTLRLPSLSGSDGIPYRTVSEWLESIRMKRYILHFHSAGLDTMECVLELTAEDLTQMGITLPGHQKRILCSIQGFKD

[2] = target: T2, Protein kinase C iota type (Homo sapiens) (UniProt P41743); experiment: Selectivity interaction (ActivX KiNativ screen (kinase selectivity in THP-1 cell lysates)) EUB0000639a PRKCI; type: subcellular; conditions: lysate, at 1 µM
T2 sequence (whole entry): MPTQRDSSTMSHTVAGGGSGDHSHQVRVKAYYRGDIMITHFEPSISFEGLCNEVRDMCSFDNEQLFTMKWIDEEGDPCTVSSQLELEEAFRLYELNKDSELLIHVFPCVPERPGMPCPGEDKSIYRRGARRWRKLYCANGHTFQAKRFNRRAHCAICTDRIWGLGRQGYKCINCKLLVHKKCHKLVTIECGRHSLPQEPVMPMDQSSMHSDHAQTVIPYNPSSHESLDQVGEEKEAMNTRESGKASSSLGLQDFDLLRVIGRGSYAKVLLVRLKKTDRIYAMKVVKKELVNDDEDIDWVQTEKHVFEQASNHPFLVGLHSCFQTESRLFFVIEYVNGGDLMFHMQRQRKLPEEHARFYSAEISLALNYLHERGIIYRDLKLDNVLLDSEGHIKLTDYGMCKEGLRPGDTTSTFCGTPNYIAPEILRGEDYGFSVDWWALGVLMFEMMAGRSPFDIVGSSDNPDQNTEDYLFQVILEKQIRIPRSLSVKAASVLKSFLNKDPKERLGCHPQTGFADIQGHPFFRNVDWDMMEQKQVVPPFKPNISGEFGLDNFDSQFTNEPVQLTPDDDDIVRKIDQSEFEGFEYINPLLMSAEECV

[3] = target: T3, Dual specificity tyrosine-phosphorylation-regulated kinase 2 (Homo sapiens) (UniProt Q92630); experiment: Selectivity interaction (KinomeScan (DiscoverX)) EUB0000655a DYRK2; conditions: at 10 µM
T3 sequence (whole entry): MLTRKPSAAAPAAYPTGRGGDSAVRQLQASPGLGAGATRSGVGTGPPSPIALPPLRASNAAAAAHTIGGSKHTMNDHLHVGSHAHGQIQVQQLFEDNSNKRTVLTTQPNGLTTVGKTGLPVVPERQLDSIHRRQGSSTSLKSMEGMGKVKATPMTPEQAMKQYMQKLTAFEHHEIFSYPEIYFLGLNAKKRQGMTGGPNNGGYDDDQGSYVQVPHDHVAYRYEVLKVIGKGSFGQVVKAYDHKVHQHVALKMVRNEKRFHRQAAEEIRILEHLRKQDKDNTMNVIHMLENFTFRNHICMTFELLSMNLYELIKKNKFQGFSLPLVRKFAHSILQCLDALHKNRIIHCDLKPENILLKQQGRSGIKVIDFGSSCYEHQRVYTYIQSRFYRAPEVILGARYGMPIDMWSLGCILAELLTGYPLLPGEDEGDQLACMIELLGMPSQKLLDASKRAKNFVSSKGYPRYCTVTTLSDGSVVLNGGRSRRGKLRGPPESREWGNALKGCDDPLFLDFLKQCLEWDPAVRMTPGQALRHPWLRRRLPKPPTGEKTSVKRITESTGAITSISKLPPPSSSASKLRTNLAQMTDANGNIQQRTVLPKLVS

[4] = target: Dual specificity mitogen-activated protein kinase kinase 1 (Homo sapiens, UniProt Q02750); experiment: Selectivity interaction (KinomeScan (DiscoverX)) EUB0000607a MAP2K1; conditions: at 10 µM
[5] = target: T4, Receptor-interacting serine/threonine-protein kinase 1 (Homo sapiens) (UniProt Q13546); experiment: Selectivity interaction (KinomeScan (DiscoverX)) EUB0000666a RIPK1; conditions: at 10 µM
T4 sequence (whole entry): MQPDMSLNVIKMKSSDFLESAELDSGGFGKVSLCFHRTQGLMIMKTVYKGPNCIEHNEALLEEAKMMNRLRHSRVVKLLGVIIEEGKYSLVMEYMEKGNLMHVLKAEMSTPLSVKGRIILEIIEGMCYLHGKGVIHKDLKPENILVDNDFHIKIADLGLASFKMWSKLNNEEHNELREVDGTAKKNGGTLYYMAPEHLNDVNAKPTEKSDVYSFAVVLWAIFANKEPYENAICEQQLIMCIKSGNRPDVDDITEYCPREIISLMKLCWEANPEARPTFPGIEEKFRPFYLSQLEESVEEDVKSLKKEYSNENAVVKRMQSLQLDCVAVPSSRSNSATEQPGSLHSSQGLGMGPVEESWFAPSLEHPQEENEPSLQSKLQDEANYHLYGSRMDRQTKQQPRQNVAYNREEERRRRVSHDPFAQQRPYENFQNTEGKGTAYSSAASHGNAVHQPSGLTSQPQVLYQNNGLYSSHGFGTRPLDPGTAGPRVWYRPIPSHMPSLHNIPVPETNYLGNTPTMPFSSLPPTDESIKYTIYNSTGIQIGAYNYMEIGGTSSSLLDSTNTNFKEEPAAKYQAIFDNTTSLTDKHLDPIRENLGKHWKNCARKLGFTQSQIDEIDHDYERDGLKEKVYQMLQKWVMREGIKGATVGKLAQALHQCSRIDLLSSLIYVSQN

Dual specificity mitogen-activated protein kinase kinase 1, sequence (Q02750 whole entry): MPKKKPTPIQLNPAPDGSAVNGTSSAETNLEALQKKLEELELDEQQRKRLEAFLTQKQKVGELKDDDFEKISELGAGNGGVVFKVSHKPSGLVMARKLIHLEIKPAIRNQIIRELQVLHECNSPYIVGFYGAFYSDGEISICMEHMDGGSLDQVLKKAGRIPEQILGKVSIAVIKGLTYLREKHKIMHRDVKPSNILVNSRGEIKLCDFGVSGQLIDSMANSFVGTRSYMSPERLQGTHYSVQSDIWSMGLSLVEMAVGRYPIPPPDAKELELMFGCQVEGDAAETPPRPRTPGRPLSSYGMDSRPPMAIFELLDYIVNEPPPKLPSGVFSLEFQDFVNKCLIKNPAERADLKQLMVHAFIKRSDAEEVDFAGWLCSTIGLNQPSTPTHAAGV

Compound: COc1cc(Nc2nc(C)cc(-c3cnn4nc(OC)ccc34)n2)cc(C(F)(F)F)c1
- % of control [1]: 93%

- % of inhibition [2]: 2.2%
Compound: CC[C@@H]1[C@H](F)C(=O)N[C@@H]1COc1nccc2cc(C(N)=O)c(OC)cc12 [ZIMLOVISERTIB]

Compound: CN(C)CCOc1ccc(-c2nc(-c3ccncc3)c(-c3ccc4c(c3)CC/C4=N\O)[nH]2)cc1
- % of control [3]: 98%

Compound: CNC(=O)Nc1ccc(-c2nc(N3CC4CCC(C3)O4)c3cnn(C4CCC5(CC4)OCCO5)c3n2)cc1
- % of control [4]: 100%

Compound: O=C(NOC[C@H](O)CO)c1ccc(F)c(F)c1Nc1ccc(I)cc1F
- % of control [5]: 85%
